From article PMC8178126, “Evaluation of the available cholesterol concentration in the inner leaflet of the plasma membrane of mammalian cells” (Journal of Lipid Research, 2021)

Target: T1, Osh4-Δ1-40 (template of Osh4-Δ1-40(K109A) and eOsh4) (Saccharomyces cerevisiae, UniProt P35844, K109A)
T1 construct: gene KES1; N-terminal lid (aa 1-40) removed; pET-30a, N- and C-terminal His6 tags (printed for eOsh4), E. coli BL21 RIL codon plus
Assay: SPR (BIACORE X-100, L1 chip, immobilised LUVs, equilibrium Req)
Assay type: binding
Conditions: apparent, 20 mM Tris pH 7.4, 0.16 M NaCl, 23 °C

Row | SMILES | Kd (protein concentration at half-maximal binding to POPC/POPS/25HC 75:20:5 LUVs (Fig. 3D legend 77:20:5)) [nM] | Kd (protein concentration at half-maximal binding to POPC/POPS/cholesterol 75:20:5 LUVs (Fig. 3D legend 77:20:5)) [nM]
1 | C[C@H](CCCC(C)(C)O)[C@H]1CC[C@H]2[C@@H]3CC=C4C[C@@H](O)CC[C@]4(C)[C@H]3CC[C@]12C [25-hydroxycholesterol] | 800 ± 130 | –
2 | CC(C)CCC[C@@H](C)[C@H]1CC[C@H]2[C@@H]3CC=C4C[C@@H](O)CC[C@]4(C)[C@H]3CC[C@]12C [cholesterol] | – | 100 ± 16
